The test system of this assay is Swiss mice, Sarcoma 180 sc, mean tumor weight T/C. Put plainly: NCI In Vivo Anticancer Drug Screen. Data for tumor model Sarcoma 180 (subcutaneous) in Swiss mice. The following applies: endpoint: mean tumor weight, higher = larger tumour. Here is the method:
The antitumor activity of compounds was measured in mice bearing transplantable tumors. Survival or tumor size were measured and the results are expressed as the measurement made in the treated group (T) divided by the measurement made in the vehicle treated control group (C). The tumor model used in this assay is Sarcoma 180 (subcutaneous) in Swiss mice

Setting [1] is: dose: 45.0 mg/kg/injection, schedule: Q01DX007 (ip), vehicle: carboxymethylcellulose (CMC).

Each structure is given as a SMILES string. Several values for one entry are separate records, joined by “and”; a condition that tells them apart may be missing. Equal entries are not always repeated.

In the case of `CN(C)c1nc(N(C)C)nc(N(C)C)n1`, the T/C (usually the result in the treated group divided by that in the control group, in per cent) reads like this: (dose: 7.34 mg/kg/injection, schedule: Q#A X014 (ip), vehicle: carboxymethylcellulose (CMC)) 86 % of control; (dose: 14.67 mg/kg/injection, schedule: Q#A X014 (ip), vehicle: carboxymethylcellulose (CMC)) 90 % of control; (dose: 22.5 mg/kg/injection, schedule: Q01DX007 (ip), vehicle: carboxymethylcellulose (CMC)) 117 % of control; (dose: 23.45 mg/kg/injection, schedule: Q#A X014 (ip), vehicle: other) 91 % of control; (dose: 25.0 mg/kg/injection, schedule: Q01DX007 (ip), vehicle: methylcellulose (MC)) 64 % of control; (dose: 25.0 mg/kg/injection, schedule: Q01DX007 (oral), vehicle: carboxymethylcellulose (CMC)) 58 % of control. Moreover, the T/C is 102 % of control (dose: 25.0 mg/kg/injection, schedule: Q01DX007 (oral), vehicle: methylcellulose (MC)); 75 % of control (dose: 29.35 mg/kg/injection, schedule: Q#A X014 (ip), vehicle: carboxymethylcellulose (CMC)); 80 % of control (dose: 29.35 mg/kg/injection, schedule: Q#A X014 (ip), vehicle: other); 53 % of control (dose: 31.25 mg/kg/injection, schedule: Q#A X014 (ip), vehicle: carboxymethylcellulose (CMC)); 83 % of control (dose: 39.1 mg/kg/injection, schedule: Q#A X014 (ip), vehicle: other); 88 % of control under setting [1]. Further, the T/C (dose: 46.9 mg/kg/injection, schedule: Q01DX007 (ip), vehicle: other) is 49 % of control; the T/C (dose: 50.0 mg/kg/injection, schedule: Q01DX007 (ip), vehicle: methylcellulose (MC)) was 61 % of control; the T/C (dose: 50.0 mg/kg/injection, schedule: Q01DX007 (oral), vehicle: carboxymethylcellulose (CMC)) is 87 % of control; the T/C (dose: 50.0 mg/kg/injection, schedule: Q01DX007 (oral), vehicle: methylcellulose (MC)) is 116 % of control; the T/C (dose: 58.7 mg/kg/injection, schedule: Q01DX007 (ip), vehicle: other) was 51 % of control; the T/C (dose: 58.7 mg/kg/injection, schedule: Q#A X014 (ip), vehicle: other) was 77 % of control. The T/C is 26 % of control (dose: 62.5 mg/kg/injection, schedule: Q#A X014 (ip), vehicle: carboxymethylcellulose (CMC)); 54 % of control (dose: 78.2 mg/kg/injection, schedule: Q01DX007 (ip), vehicle: other); 77 % of control (dose: 90.0 mg/kg/injection, schedule: Q01DX007 (ip), vehicle: carboxymethylcellulose (CMC)); 75 % of control (dose: 100.0 mg/kg/injection, schedule: Q01DX007 (ip), vehicle: methylcellulose (MC)); 67 % of control (dose: 100.0 mg/kg/injection, schedule: Q01DX007 (oral), vehicle: carboxymethylcellulose (CMC)); 108 % of control (dose: 100.0 mg/kg/injection, schedule: Q01DX007 (oral), vehicle: methylcellulose (MC)). Further, the T/C is 40 % of control (dose: 117.4 mg/kg/injection, schedule: Q01DX007 (ip), vehicle: other); 94 % of control (dose: 200.0 mg/kg/injection, schedule: Q01DX007 (ip), vehicle: methylcellulose (MC)); 57 % of control (dose: 200.0 mg/kg/injection, schedule: Q01DX007 (oral), vehicle: carboxymethylcellulose (CMC)); 114 % of control (dose: 200.0 mg/kg/injection, schedule: Q01DX007 (oral), vehicle: methylcellulose (MC)).

Consider `S=P(N1CCCCCC1)(N1CC1)N1CC1`, for which the T/C reads like this: (dose: 6.0 mg/kg/injection, schedule: Q01DX007 (ip), vehicle: carboxymethylcellulose (CMC)) 90 % of control; (dose: 6.5 mg/kg/injection, schedule: Q#A X014 (ip), vehicle: methylcellulose (MC)) 52 % of control; (dose: 9.0 mg/kg/injection, schedule: Q01DX007 (ip), vehicle: carboxymethylcellulose (CMC)) 60 % of control; (dose: 10.0 mg/kg/injection, schedule: Q#A X014 (ip), vehicle: methylcellulose (MC)) 60 % of control; (dose: 13.0 mg/kg/injection, schedule: Q01DX007 (ip), vehicle: carboxymethylcellulose (CMC)) 74 % of control; (dose: 15.0 mg/kg/injection, schedule: Q#A X014 (ip), vehicle: methylcellulose (MC)) 53 % of control. Besides, the T/C runs as follows: (dose: 20.0 mg/kg/injection, schedule: Q01DX007 (ip), vehicle: carboxymethylcellulose (CMC)) 62 % of control; (dose: 22.5 mg/kg/injection, schedule: Q#A X014 (ip), vehicle: methylcellulose (MC)) 23 % of control; (dose: 29.0 mg/kg/injection, schedule: Q01DX007 (ip), vehicle: carboxymethylcellulose (CMC)) 89 % of control; under setting [1], 57 % of control; (dose: 45.0 mg/kg/injection, schedule: Q01DX007 (ip), vehicle: saline) 25 % of control; (dose: 67.0 mg/kg/injection, schedule: Q01DX007 (ip), vehicle: carboxymethylcellulose (CMC)) 38 % of control. For the same compound, the T/C (dose: 90.0 mg/kg/injection, schedule: Q01DX007 (ip), vehicle: saline) was 12 % of control.

`CC(=O)Nc1cc2c(cc1Br)-c1ccccc1C2O` (stereo unspecified): the T/C was 60 % of control (dose: 48.0 mg/kg/injection, schedule: Q01DX007 (ip), vehicle: other); 93 % of control (dose: 73.0 mg/kg/injection, schedule: Q01DX007 (ip), vehicle: other); 40 % of control and 56 % of control (dose: 130.0 mg/kg/injection, schedule: Q01DX007 (ip), vehicle: saline); 107 % of control (dose: 195.0 mg/kg/injection, schedule: Q01DX007 (ip), vehicle: saline); 36 % of control (dose: 250.0 mg/kg/injection, schedule: Q01DX007 (ip), vehicle: other); 46 % of control (dose: 375.0 mg/kg/injection, schedule: Q01DX007 (ip), vehicle: other). Also, the T/C (dose: 560.0 mg/kg/injection, schedule: Q01DX007 (ip), vehicle: other) was 32 % of control.

For the compound `CCCn1cnc2c(=S)nc[nH]c21`, the T/C reads like this: (dose: 43.0 mg/kg/injection, schedule: Q01DX007 (ip), vehicle: carboxymethylcellulose (CMC)) 75 % of control; (dose: 61.0 mg/kg/injection, schedule: Q01DX007 (ip), vehicle: carboxymethylcellulose (CMC)) 44 % of control; (dose: 93.0 mg/kg/injection, schedule: Q01DX007 (ip), vehicle: carboxymethylcellulose (CMC)) 35 % of control; (dose: 140.0 mg/kg/injection, schedule: Q01DX007 (ip), vehicle: carboxymethylcellulose (CMC)) 28 % of control.

Regarding `CCN(CC)CCNc1ccc([N+](=O)[O-])c2sc3ccccc3c(=O)c12`, the T/C is 71 % of control (dose: 14.0 mg/kg/injection, schedule: Q#A X014 (ip), vehicle: saline); 65 % of control (dose: 21.0 mg/kg/injection, schedule: Q#A X014 (ip), vehicle: saline); 65 % of control (dose: 31.5 mg/kg/injection, schedule: Q#A X014 (ip), vehicle: saline); 34 % of control (dose: 47.5 mg/kg/injection, schedule: Q#A X014 (ip), vehicle: saline).

Regarding `[O]=[V]`, the T/C is, setting by setting: (dose: 7.5 mg/kg/injection, schedule: Q01DX007 (sc), vehicle: olive oil, sesame oil, peanut oil) 94 % of control; (dose: 15.0 mg/kg/injection, schedule: Q01DX007 (sc), vehicle: olive oil, sesame oil, peanut oil) 89 % of control; (dose: 30.0 mg/kg/injection, schedule: Q01DX007 (sc), vehicle: olive oil, sesame oil, peanut oil) 100 % of control.

In the case of `CNC(C)=O`, the T/C (dose: 125.0 mg/kg/injection, schedule: Q01DX007 (ip), vehicle: carboxymethylcellulose (CMC)) was 84 % of control; the T/C (dose: 250.0 mg/kg/injection, schedule: Q01DX007 (ip), vehicle: carboxymethylcellulose (CMC)) was 90 % of control and 106 % of control; the T/C (dose: 500.0 mg/kg/injection, schedule: Q01DX007 (ip), vehicle: carboxymethylcellulose (CMC)) was 71 % of control; the T/C (dose: 623.2 mg/kg/injection, schedule: Q01DX007 (ip), vehicle: carboxymethylcellulose (CMC)) is 72 % of control; the T/C (dose: 779.0 mg/kg/injection, schedule: Q01DX007 (ip), vehicle: carboxymethylcellulose (CMC)) is 75 % of control; the T/C (dose: 1038.66 mg/kg/injection, schedule: Q01DX007 (ip), vehicle: carboxymethylcellulose (CMC)) is 69 % of control. For the same compound, the T/C by setting is: (dose: 1558.0 mg/kg/injection, schedule: Q01DX007 (ip), vehicle: carboxymethylcellulose (CMC)) 58 % of control; (dose: 2000.0 mg/kg/injection, schedule: Q01DX007 (ip), vehicle: carboxymethylcellulose (CMC)) 23 % of control.

Consider `CS(C)=O`, for which the T/C by setting is: (dose: 1000.0 mg/kg/injection, schedule: Q01DX007 (ip), vehicle: other) 71 % of control; (dose: 1000.0 mg/kg/injection, schedule: Q#A X014 (ip), vehicle: other) 91 % of control; (dose: 1500.0 mg/kg/injection, schedule: Q01DX007 (ip), vehicle: other) 84 % of control; (dose: 1500.0 mg/kg/injection, schedule: Q#A X014 (ip), vehicle: other) 99 % of control.

(Values after PubChem BioAssay AID342 (DTP/NCI, 2004).)
